Reference: paper PMC12655457, “Does CytoSorb Interfere with Immunosuppression? A Pharmacokinetic and Functional Evaluation” (Pharmaceutics, 2025)

Tests used:
human whole blood [1] = experiment: Whole blood cell model: LPS stimulation, cytokine measurement; assay type: cell-based; conditions: + CytoSorb
Experimental: (§5) Subsequently, the blood was split into two experimental groups: one was treated with CytoSorb in a batch setup, and the other served as an untreated control, incubated under identical conditions at 37 °C on a roller mixer. Following treatment, all samples were allowed to rest for 4 h. After the resting period, blood samples were stimulated with either lipopolysaccharide (LPS) E. coli or with anti-CD3 antibodies. […] The stimulation was carried out for 4 h at 37 °C on a roller mixer. Thereafter, the blood samples were centrifuged, and the plasma was collected and stored at −80 °C. Leukocyte activation was assessed by quantification of IL-1β, IL-6, IL-8, and TNF-α.

[2] = Whole blood cell model: immunosuppressant serum levels after CytoSorb treatment; assay type: in vitro ADME, human; conditions: overnight incubation, p < 0.05, n = 6
Experimental: To investigate whether the in vitro depletion of immunosuppressants by CytoSorb affects immunosuppression, a whole blood cell model was established. The experiment was conducted over two consecutive days. A graphical overview of the setup is provided in Supplementary Figure S1. On day one, freshly drawn human whole blood was incubated overnight at 37 °C with various immunosuppressants, either individually or in combination, to allow for sufficient drug exposure prior to CytoSorb treatment.
Subsequently, the blood was split into two experimental groups: one was treated with CytoSorb in a batch setup, and the other served as an untreated control, incubated under identical conditions at 37 °C on a roller mixer. Following treatment, all samples were allowed to rest for 4 h. After the resting period, blood samples were stimulated with either lipopolysaccharide (LPS) E. coli or with anti-CD3 antibodies. LPS primarily activates monocytes and neutrophils via the TLR4/CD14/MD2 complex, while anti-CD3 specifically stimulates T cells. The stimulation was carried out for 4 h at 37 °C on a roller mixer. Thereafter, the blood samples were centrifuged, and the plasma was collected and stored at −80 °C. Leukocyte activation was assessed by quantification of IL-1β, IL-6, IL-8, and TNF-α.
(§1) MPA was determined using a validated test for the Cobas c311 autoanalyzer from Roche (Basel, Switzerland). 6-MP was quantified by reversed-phase HPLC [17, 18]. After precipitation of the plasma sample with ice cold methanol in ratio 1:5, 30 µL of the supernatant was injected into a Nukleosil 100-5C18, 4.6 × 150 mm C18 column (Macherey-Nagel, Düren, Germany), combined with an Onyx Monolithic C18, 4.6 × 5 mm guard column (Phenomenex, Torrance, CA, USA). The mobile phase consisted of methanol and deionised water (50:50) which was continuously pumped with a flow rate of 0.8 mL/min for five minutes. 6-MP was quantified with a retention time of 2.3 min using an UV detector (325 nm). The quantification of cytokines was determined by Magnetic Luminex Assay with a human premixed Multi Analyte Kit (R&D Systems, Minneapolis, MN, USA). The urea, albumin and total protein levels were measured with the cobas c311 automated analyzer with corresponding test kits from Roche (Penzberg, Germany).

[3] = Static CytoSorb adsorption setup (spiked plasma with CytoSorb resin); assay type: in vitro ADME, human; conditions: plasma:resin 1:10 v/v, 60 min, 37 °C, n = 3
Experimental: Plasma was obtained by centrifugation (3500× g, 10 min) from citrate-anticoagulated human whole blood and spiked with immunosuppressants to defined target concentrations (Table 1). To evaluate adsorption, plasma was incubated with the CytoSorb resin at 1:10 (v/v) for 60 min at 37 °C on a roller mixer. In parallel, a separate aliquot of spiked plasma was incubated with autologous blood cells (1:1, v/v) to assess cellular uptake of immunosuppressants. Untreated spiked plasma served as control (Figure 1a). Samples were collected before and after incubation for subsequent analysis.
as §1

[4] = Dynamic CytoSorb adsorption setup (scaled-down circuit, whole blood); assay type: in vitro ADME, human; conditions: for mean clearance rate: CytoSorb treatment, at 15 min, Equation (2); for adsorption (removal) by CytoSorb: dynamic ex vivo circuit, 400 mL human whole blood, 30 mL cartridge, 4 h; for reduction of serum levels by CytoSorb (abstract): as stated in the abstract, experiment not specified
Experimental: To quantify the depletion of selected immunosuppressants during CytoSorb treatment under dynamic conditions, a scaled-down extracorporeal circulation system was established, consisting of a 30 mL CytoSorb adsorption cartridge and a pediatric tubing set filled with 400 mL of freshly drawn human whole blood (Figure 1b). To distinguish between drug removal by adsorption versus uptake by blood components, a control circuit with an identical setup but an empty cartridge was run in parallel for each experiment. Whole blood from two healthy donors of the same blood group was pooled, anticoagulated with citrate (final concentration: 7 mM), spiked with the immunosuppressants, and divided into two 400 mL blood bags.
Prior to circulation, the entire system was flushed with isotonic saline. Then, one of the prepared blood bags (Group 1 or Group 2) was connected to the circuit and circulated for 30 min at 37 °C without the adsorber cartridge to allow for equilibration. Following this equilibration, a baseline sample (0 min) was collected, and the adsorption column was introduced into the circuit. In the adsorption circuit, samples were collected at 15, 30, 60, 120, 180 and 240 min. In the control circuit, samples were taken at baseline and after 240 min. All blood samples were centrifuged (3500× g, 10 min) to separate plasma, which was stored at −80 °C until further analysis.
(§2) The clearance (C) of each compound during both the dialysis and the dynamic CytoSorb experiments was calculated using the first-order exponential decay formula:(2) C = V/t ×lnCo/Ct where V = plasma volume, t = treatment time [min], C0 = concentration before starting treatment, Ct = concentration at time t.
as §1

[5] = Removal of immunosuppressants by chronic dialysis (ex vivo, plasma); assay type: in vitro ADME, human
Experimental: (§3) To evaluate the effect of dialysis under clinically relevant conditions, both chronic and acute dialysis settings were simulated using standard Fresenius systems. In all experiments, 1.5 L of citrated human plasma was dialyzed against calcium-free dialysate at 37 °C.
(§4) Prior to circulation, the systems were flushed with 2 L of isotonic saline. Plasma samples were collected at defined time points (15–480 min) and analyzed for immunosuppressants, urea, and albumin. Chronic dialysis represents intermittent high-flow conditions, whereas acute dialysis mimics continuous low-flow therapy used in critically ill patients.
as §2

[6] = literature; ref 21 (6-MP), 22 (CsA), 23 (MPR), 24 (MPA), 25 (TAC); cited from earlier work
[7] = Determination of protein binding by ultrafiltration; assay type: in vitro ADME; conditions: human plasma, ultrafiltration 30 kDa cutoff; for fraction unbound: read-out: Protein Binding in Plasma, Current Study (converted)
Experimental: To assess protein binding of the tested immunosuppressants, human plasma was spiked with the respective drugs and urea as a freely diffusible control. Samples were then subjected to ultrafiltration (30 kDa cutoff, 15,000× g, 20 min). The protein-bound fraction was calculated using the following formula:(1) protein binding %= 1−Cfiltrate/Cplasma where cplasma is the concentration of each compound in plasma and cfiltrate is its concentration in the ultrafiltrate.

[8] = design: method as in earlier work; conditions: literature; ref 23 (methylprednisolone), 24 (mycophenolate), 41 (6-mercaptopurine); cited from earlier work
human whole blood [9] = experiment: Whole blood cell model: anti-CD3 stimulation, cytokine measurement; assay type: cell-based; conditions: + Anti-CD3, + CytoSorb
Experimental: as §5

[10] = Removal of immunosuppressants by acute dialysis (CVVHD, ex vivo, plasma); assay type: in vitro ADME, human
Experimental: as §3, §4, §2

| reduction in serum level following CytoSorb treatment (in words) [2] | reduction of level in plasma by CytoSorb [3] | mean clearance rate [4] | adsorption (removal) by CytoSorb [4] [%] | removal by dialysis (in words) [5] | SMILES | IL-1β serum level (human whole blood [1]; test 1) [pg/mL] | IL-6 serum level (human whole blood [1]; test 1) [pg/mL] | IL-8 serum level (human whole blood [1]; test 1) [pg/mL] | TNF-α serum level (human whole blood [1]; test 1) [pg/mL] | IL-1β serum level (human whole blood [1]; test 2) [pg/mL] | IL-6 serum level (human whole blood [1]; test 2) [pg/mL] | IL-8 serum level (human whole blood [1]; test 2) [pg/mL] | TNF-α serum level (human whole blood [1]; test 2) [pg/mL] | IL-1β serum level (human whole blood [1]; test 3) [pg/mL] | IL-6 serum level (human whole blood [1]; test 3) [pg/mL] | IL-8 serum level (human whole blood [1]; test 3) [pg/mL] | TNF-α serum level (human whole blood [1]; test 3) [pg/mL] | IL-1β serum level (human whole blood [9]; test 1) [pg/mL] | IL-6 serum level (human whole blood [9]; test 1) [pg/mL] | IL-8 serum level (human whole blood [9]; test 1) [pg/mL] | other results |
| --- | --- | --- | --- | --- | --- | --- | --- | --- | --- | --- | --- | --- | --- | --- | --- | --- | --- | --- | --- | --- | --- |
| significant reduction | 37 ± 6% | approximately 44 mL/min | 76 ± 2 | only slightly reduced | COc1c(C)c2c(c(O)c1C/C=C(\C)CCC(=O)O)C(=O)OC2 [MPA, mycophenolic acid] | 992 | 3303 | 4068 | 3390 | 112 | 627 | 2855 | 1274 | 1465 | 16855 | 15529 | 720 | 0 | 4 | 564 | Protein Binding in Plasma, Reference [6]: 97 [24] %; fraction unbound [7]: 0.021; volume of distribution (Vd) [8]: ≈ 3.6 L/kg; TNF-α serum level (human whole blood [9]; test 1): 107 pg/mL; IL-1β serum level (human whole blood [9]; test 2): 115 pg/mL; IL-6 serum level (human whole blood [9]; test 2): 645 pg/mL; IL-8 serum level (human whole blood [9]; test 2): 3704 pg/mL; TNF-α serum level (human whole blood [9]; test 2): 109 pg/mL; IL-1β serum level (human whole blood [9]; test 3): 170 pg/mL; IL-6 serum level (human whole blood [9]; test 3): 952 pg/mL; IL-8 serum level (human whole blood [9]; test 3): 4924 pg/mL; TNF-α serum level (human whole blood [9]; test 3): 55 pg/mL |
| significant reduction | 91 ± 2% | ~49 mL/min | 92 ± 3 | high removal | C[C@H]1C[C@@H]2[C@H]([C@@H](O)C[C@@]3(C)[C@H]2CC[C@]3(O)C(=O)CO)[C@@]2(C)C=CC(=O)C=C12 [MPR, methylprednisolone] | 354 | 3786 | 6337 | 2920 | 26 | 73 | 1630 | 416 | 190 | 3799 | 7104 | 1250 | 0 | 1 | 171 | removal by dialysis (in words) [10]: moderate removal; clearance ([10]; after 8 h): below 10 mL/min; clearance ([10]; highest value reached): ≤ 28 mL/min; reduction of serum levels by CytoSorb (abstract) [4]: 92 ± 3%; clearance ([5]; initial values): ~ 75 mL/min; Protein Binding in Plasma, Reference [6]: 77 [23] %; fraction unbound [7]: 0.066; volume of distribution (Vd) [8]: ≈ 1.4 L/kg; TNF-α serum level (human whole blood [9]; test 1): 43 pg/mL; IL-1β serum level (human whole blood [9]; test 2): 44 pg/mL; IL-6 serum level (human whole blood [9]; test 2): 16 pg/mL; IL-8 serum level (human whole blood [9]; test 2): 242 pg/mL; TNF-α serum level (human whole blood [9]; test 2): 57 pg/mL; IL-1β serum level (human whole blood [9]; test 3): 70 pg/mL; IL-6 serum level (human whole blood [9]; test 3): 30 pg/mL; IL-8 serum level (human whole blood [9]; test 3): 686 pg/mL; TNF-α serum level (human whole blood [9]; test 3): 41 pg/mL |
| no significant adsorption | not affected | around 15 mL/min | 18 ± 16 | not effectively removed | C=CC[C@@H]1/C=C(\C)C[C@H](C)C[C@H](OC)[C@H]2O[C@@](O)(C(=O)C(=O)N3CCCC[C@H]3C(=O)O[C@H](/C(C)=C/[C@@H]3CC[C@@H](O)[C@H](OC)C3)[C@H](C)[C@@H](O)CC1=O)[C@H](C)C[C@@H]2OC [TAC, tacrolimus] | 412 | 7095 | 7756 | 1967 | 62 | 584 | 2388 | 1337 | 646 | 23302 | 50044 | 690 | 18 | 28 | 1654 | removal by dialysis (in words) [10]: not effectively removed; reduction of serum levels by CytoSorb (abstract) [4]: no significant effect; clearance ([5]; throughout): below 2 mL/min; Protein Binding in Plasma, Current Study [7]: 97.9 ± 10.9%; TNF-α serum level (human whole blood [9]; test 1): 38 pg/mL; IL-1β serum level (human whole blood [9]; test 2): 93 pg/mL; IL-6 serum level (human whole blood [9]; test 2): 773 pg/mL; IL-8 serum level (human whole blood [9]; test 2): 8613 pg/mL; TNF-α serum level (human whole blood [9]; test 2): 53 pg/mL; IL-1β serum level (human whole blood [9]; test 3): 268 pg/mL; IL-6 serum level (human whole blood [9]; test 3): 2598 pg/mL; IL-8 serum level (human whole blood [9]; test 3): 25920 pg/mL; TNF-α serum level (human whole blood [9]; test 3): 85 pg/mL |
